Results reported in US20170107235A1, “PYRROLOBENZ[…] FOR TREATING LYMPHOMA” (ADC PRODUCTS (UK) LIMITED, priority 2014, published 2017).
“And” between values parts separate entries of the source, which are not always exact repeats. Identical values can stand only once.

Test system: dogs with spontaneous malignancies (lymphoma)
Test: Phase Ia clinical trial of SG2000 in dogs with spontaneous malignancies (lymphoma patients)
Type: in vivo
Set-up: key to Response during first cycle / Response to SG2000: Complete response (CR) is defined as the disappearance of all target lesions; Partial response (PR) is defined as a >30% decrease in the sum of the longest dimensions of the target lesions; Progressive disease (PD) is defined as a >20% increase in the sum of the longest dimensions of the target lesions; Stable Disease (SD) is defined as neither sufficient shrinkage to qualify for PR nor sufficient increase to qualify for PD
Protocol: A Phase Ia clinical trial in dogs with spontaneous malignancies was undertaken at the Royal Veterinary College, University of London, UK.
was supplied in 5 mL vials, wherein each mL contains 10 micrograms of SG2000 and 47.1 mg of dimethylacetamide. For doses below 100 microgram, the required volume of SG2000 was diluted to 10 ml with normal saline (0.9% sodium chloride) prior to administration. If the total dose exceeds 100 micrograms, the supplied solution was used without prior dilution with normal saline.
SG2000 was administered as a slow intravenous infusion into a peripheral vein. The drug was be administered slowly IV over 20 minutes via a peripheral vein catheter. If the drug has been diluted to a total volume of 10 ml, this will mean injecting 0.5 ml per minute.
The following concomitant/supportive medications permitted during the trial were:
The following definitions are used in reporting the results:
Complete response (CR) is defined as the disappearance of all target lesions.
Partial response (PR) is defined as a >30% decrease in the sum of the longest dimensions of the target lesions, taking as a reference the baseline sum longest dimensions.
Progressive disease (PD) is defined as a >20% increase in the sum of the longest dimensions of the target lesions, taking as a reference the smallest sum of the longest dimensions recorded since the treatment started, or the appearance of 1 or more new lesions.
Stable Disease (SD) is defined as neither sufficient shrinkage to qualify for PR nor sufficient increase to qualify for PD, taking as a reference the smallest sum of the longest dimensions since the treatment started.
Objective Response Rate (ORR) is defined as the number of patients with confirmed complete or partial responses, expressed as a percentage of all patients treated with SG2000
Time to Progression (TTP) is defined as the period of time from first date of treatment to the date that the patient is withdrawn because of clinical or imaging-based progressive disease, or death from any cause (including euthanasia).
“Duration of Response” is defined for patients with an objective response only.
This patient, diagnosed with multicentric B-cell high grade lymphoma, had been previously treated with 5 protocols. This patient was treated for a first cycle (3 weeks) with IV 1.75 μg/kg SG2000 solution with a single weekly dose. […] The second cycle of treatment followed with IV 2.00 μg/kg SG2000 with a single weekly dose. The third cycle of weekly dosing was begun after a single week break, with doses of 2.00 μg/kg SG2000, 1.75 μg/kg SG2000 and 2.00 μg/kg SG2000.
Patients 2 to 9 were treated as follows, with the stated amount of SG2000 (μg/kg), with a 3 weekly cycle of weekly treatments, and a single break week between cycles.
Patients 2, 4-5 were diagnosed with multicentric B-cell high grade lymphoma, Patients 3, 8 and 9 were diagnosed with multicentric B-cell intermediate grade lymphoma and Patient 6 was diagnosed with multicentric T-cell high grade lymphoma. Patient 7 was diagnosed with multicentric and mediastinal high grade lymphoma, which was suspected to be to be T-cell lymphoma.

[1] = Patient 1, dog, multicentric B-cell high grade lymphoma
[2] = Patient 1, dog, multicentric B-cell high grade lymphoma, IV 1.75-2.00 μg/kg weekly, 3 cycles
[3] = dogs with multicentric lymphoma, Patients 2 to 9, IV 1.5-2 μg/kg weekly

## C=C1C[C@H]2C=Nc3cc(OCCCOc4cc5c(cc4OC)C(=O)N4CC(=C)C[C@H]4C=N5)c(OC)cc3C(=O)N2C1 [SG2000]
[1]
  Progression free interval with treatment: 111 days
  Survival time since the start of the SG2000 trial: 126 days
[2]
  Patient response at the end of the planned 3 cycles: PD (Progressive disease (PD) is defined as a >20% increase in the sum of the longest dimensions of the target lesions)
  Toxicity at the end of the planned 3 cycles: grade 4 anaemia
Patient 1, dog, multicentric B-cell high grade lymphoma, after first cycle IV 1.75 μg/kg weekly
  Disease course in the planned three week break after first cycle: the disease progressed
Patient 1, dog, multicentric B-cell high grade lymphoma, first cycle (3 weeks) IV 1.75 μg/kg single weekly dose
  Response during first cycle: SD
Patient 1, dog, multicentric B-cell high grade lymphoma, previously treated with 5 protocols
  Survival time from diagnosis: 408 days
[3]
  Progression free interval: 10 d (2×) and 56 d and 54 d and 7 d and 158 d and 43 d
  Survival time from SG2000 start: 24 days and 74 days and 16 days and 95 days and 8 days and 195 days and 49 days
  Survival time from diagnosis: 31 days and 186 days and 252 days and 336 days and 141 days and 811 days and 138 days
Dogs with multicentric lymphoma, Patients 2 to 9, IV 1.5-2 μg/kg weekly, 3 weekly cycles
  Response to SG2000: PD (Progressive disease (PD) is defined as a >20% increase in the sum of the longest dimensions of the target lesions) (3×) and SD (2×) and PR (Partial response (PR) is defined as a >30% decrease in the sum of the longest dimensions of the target lesions) (2×) and CR
